The values that follow come from US9902696B2, “1,4-substituted piperidine derivatives” (Cephalon, Inc., priority 2015, dated 2018).

Structures can show the parent of a compound that is named as a salt.

For this test, the target named is T1, recombinant human baculovirus-expressed GST-tagged FASN (Homo sapiens, UniProt P49327).
T1 construct: GST
T1 sequence (P49327 whole entry): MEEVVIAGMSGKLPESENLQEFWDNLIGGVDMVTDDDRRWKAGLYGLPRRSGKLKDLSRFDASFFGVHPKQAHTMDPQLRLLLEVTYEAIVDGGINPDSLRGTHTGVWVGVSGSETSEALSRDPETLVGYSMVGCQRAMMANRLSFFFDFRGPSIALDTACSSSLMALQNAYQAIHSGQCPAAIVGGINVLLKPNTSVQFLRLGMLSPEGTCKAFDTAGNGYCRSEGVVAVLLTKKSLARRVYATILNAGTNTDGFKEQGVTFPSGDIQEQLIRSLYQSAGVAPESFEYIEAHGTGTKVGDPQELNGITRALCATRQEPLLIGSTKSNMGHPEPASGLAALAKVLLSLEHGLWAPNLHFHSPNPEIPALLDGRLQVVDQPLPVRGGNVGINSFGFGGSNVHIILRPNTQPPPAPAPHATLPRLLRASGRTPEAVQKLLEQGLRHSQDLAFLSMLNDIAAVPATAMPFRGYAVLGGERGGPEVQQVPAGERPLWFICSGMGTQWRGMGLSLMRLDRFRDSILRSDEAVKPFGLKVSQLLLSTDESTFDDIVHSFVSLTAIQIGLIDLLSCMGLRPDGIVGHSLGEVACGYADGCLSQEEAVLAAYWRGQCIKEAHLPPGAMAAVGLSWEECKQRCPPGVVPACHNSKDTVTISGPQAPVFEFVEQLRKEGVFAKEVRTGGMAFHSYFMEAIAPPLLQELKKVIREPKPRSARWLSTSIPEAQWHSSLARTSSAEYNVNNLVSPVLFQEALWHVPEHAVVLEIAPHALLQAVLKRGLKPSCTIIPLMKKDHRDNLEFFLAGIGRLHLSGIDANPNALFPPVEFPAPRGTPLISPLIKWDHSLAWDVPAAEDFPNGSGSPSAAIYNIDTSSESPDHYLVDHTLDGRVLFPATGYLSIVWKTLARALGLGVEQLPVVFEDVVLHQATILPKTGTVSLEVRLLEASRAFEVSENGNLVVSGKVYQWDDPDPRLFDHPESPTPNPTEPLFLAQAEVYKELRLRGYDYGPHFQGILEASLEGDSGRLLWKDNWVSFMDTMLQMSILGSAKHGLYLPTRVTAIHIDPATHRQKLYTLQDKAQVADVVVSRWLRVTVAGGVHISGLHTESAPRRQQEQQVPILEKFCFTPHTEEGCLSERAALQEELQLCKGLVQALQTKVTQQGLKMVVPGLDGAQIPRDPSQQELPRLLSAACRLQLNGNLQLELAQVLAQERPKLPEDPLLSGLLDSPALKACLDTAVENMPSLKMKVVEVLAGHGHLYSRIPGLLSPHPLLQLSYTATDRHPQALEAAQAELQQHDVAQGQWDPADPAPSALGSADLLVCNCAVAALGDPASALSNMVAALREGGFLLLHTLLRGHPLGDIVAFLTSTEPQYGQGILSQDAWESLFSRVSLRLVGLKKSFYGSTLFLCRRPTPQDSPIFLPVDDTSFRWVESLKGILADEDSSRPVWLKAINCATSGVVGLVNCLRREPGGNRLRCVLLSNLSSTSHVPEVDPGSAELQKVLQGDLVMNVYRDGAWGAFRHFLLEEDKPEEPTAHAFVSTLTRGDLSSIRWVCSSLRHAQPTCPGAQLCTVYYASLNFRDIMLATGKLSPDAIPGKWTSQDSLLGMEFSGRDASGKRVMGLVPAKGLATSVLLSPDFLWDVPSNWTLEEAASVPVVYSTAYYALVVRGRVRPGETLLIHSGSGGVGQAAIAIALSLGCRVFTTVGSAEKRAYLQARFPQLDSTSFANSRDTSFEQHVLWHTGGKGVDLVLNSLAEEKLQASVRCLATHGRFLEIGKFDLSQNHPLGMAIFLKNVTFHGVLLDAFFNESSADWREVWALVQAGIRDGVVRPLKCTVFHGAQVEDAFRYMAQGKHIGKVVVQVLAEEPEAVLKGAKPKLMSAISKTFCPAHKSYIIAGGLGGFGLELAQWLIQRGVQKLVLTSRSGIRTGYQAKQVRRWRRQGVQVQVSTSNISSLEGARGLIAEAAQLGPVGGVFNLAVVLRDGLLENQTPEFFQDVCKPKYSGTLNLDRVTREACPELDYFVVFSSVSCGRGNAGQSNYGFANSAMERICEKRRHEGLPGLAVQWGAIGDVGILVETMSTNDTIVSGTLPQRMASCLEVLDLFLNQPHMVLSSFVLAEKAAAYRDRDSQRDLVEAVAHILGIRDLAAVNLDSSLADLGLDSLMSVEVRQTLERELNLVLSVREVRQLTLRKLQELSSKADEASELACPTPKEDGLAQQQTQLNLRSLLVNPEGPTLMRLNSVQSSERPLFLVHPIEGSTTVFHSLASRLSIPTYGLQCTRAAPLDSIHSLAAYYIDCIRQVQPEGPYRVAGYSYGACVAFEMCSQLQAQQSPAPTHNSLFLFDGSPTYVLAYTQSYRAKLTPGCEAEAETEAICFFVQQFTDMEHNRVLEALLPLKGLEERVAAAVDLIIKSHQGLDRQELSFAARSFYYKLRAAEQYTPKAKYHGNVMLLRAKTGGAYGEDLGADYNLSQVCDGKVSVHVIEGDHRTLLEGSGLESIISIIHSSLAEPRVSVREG
Briefly: FASN enzyme activity assay, fluorescence-based detection of CoA with CPM. Format: biochemical. The following applies: 5 nM FASN, 150 μM NADPH, 10 μM acetyl-CoA, 25 μM malonyl-CoA, 90 minutes incubation; read-out: IC50 data for Compounds of Formulae I-V/V(a): Activity. The method in brief: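 Human GST-tagged FASN, baculovirus-expressed (5 nM), in 50 mM HEPES pH 7.5 with 150 μM NADPH, 10 μM acetyl-CoA, 25 μM malonyl-CoA, 0.5% DMSO; malonyl-CoA-started, 90 min. Released CoA detected with CPM (50 μM dilution), 30 min, fluorescence ex 390/em 530. IC50 from variable-slope sigmoidal fit of % inhibition versus log concentration.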
`CCc1nccc2cc(-c3ccc(OC4CCN(C(=O)[C@H]5CCCO5)CC4)cc3)ccc12` [Example 438, {4-[4-(1-Ethylisoquinolin-6-yl)-phenoxy]-piperidin-1-yl}-(R)-tetrahydro-furan-2-yl-methanone, HCl]: the IC50 lay within 1 to 99 nM.
The same measure for `CCC(=O)N1CCC(Oc2ccc(-c3ccc4c(C5CC5)nccc4c3)cc2)CC1` [Example 439, 1-{4-[4-(1-Cyclopropyl-isoquinolin-6-yl)-phenoxy]-piperidin-1-yl}-propan-1-one]: 1000 to 10000 nM; for `O=C([C@H]1CCCO1)N1CCC(Oc2ccc(-c3ccc4c(C5CC5)nccc4c3)cc2)CC1` [Example 440, {4-[4-(1-Cyclopropylisoquinolin-6-yl)-phenoxy]-piperidin-1-yl}-(R)-tetrahydrofuran-2-yl-methanone]: 1 to 99 nM.
Under `CCC(=O)N1CCC(Oc2ccc(-c3cnc4cc(OC)c(C)cc4c3)cc2)CC1` [Example 441, 1-{4-[4-(7-Methoxy-6-methylquinolin-3-yl)-phenoxy]-piperidin-1-yl}-propan-1-one] stands 1000 to 10000 nM; under `COc1cc2ncc(-c3ccc(OC4CCN(C(=O)C5CC5)CC4)cc3)cc2cc1C` [Example 442, Cyclopropyl-{4-[4-(7-methoxy-6-methylquinolin-3-yl)-phenoxy]-piperidin-1-yl}-methanone], 1000 to 10000 nM; under `COc1cc2ncc(-c3ccc(OC4CCN(C(=O)[C@H]5CCCO5)CC4)cc3)cc2cc1C` [Example 443, {4-[4-(7-Methoxy-6-methylquinolin-3-yl)-phenoxy]-piperidin-1-yl}-(R)-tetrahydrofuran-2-yl-methanone], 1000 to 10000 nM.
In the case of `CCC(=O)N1CCC(Oc2ccc(-c3cnc4cc(OC)c(F)cc4c3)cc2)CC1` [Example 444, 1-{4-[4-(6-Fluoro-7-methoxyquinolin-3-yl)-phenoxy]-piperidin-1-yl}-propan-1-one], the IC50 lay within 1000 to 10000 nM.
For `COc1cc2ncc(-c3ccc(OC4CCN(C(=O)C5CC5)CC4)cc3)cc2cc1F` [Example 445, Cyclopropyl-{4-[4-(6-fluoro-7-methoxyquinolin-3-yl)-phenoxy]-piperidin-1-yl}-methanone], the IC50 lay within 1000 to 10000 nM.
The same measure for `COc1cc2ncc(-c3ccc(OC4CCN(C(=O)[C@H]5CCCO5)CC4)cc3)cc2cc1F` [Example 446, {4-[4-(6-Fluoro-7-methoxyquinolin-3-yl)-phenoxy]-piperidin-1-yl}-(R)-tetrahydrofuran-2-yl-methanone]: 1000 to 10000 nM; for `CCC(=O)N1CCC(Oc2ccc(-c3cnc4cc(OC)c(Cl)cc4c3)cc2)CC1` [Example 447, 1-{4-[4-(6-Chloro-7-methoxyquinolin-3-yl)-phenoxy]-piperidin-1-yl}-propan-1-one]: 1000 to 10000 nM; for `COc1cc2ncc(-c3ccc(OC4CCN(C(=O)C5CC5)CC4)cc3)cc2cc1Cl` [Example 448, {4-[4-(6-Chloro-7-methoxyquinolin-3-yl)-phenoxy]-piperidin-1-yl}-cyclopropylmethanone]: 1000 to 10000 nM.
Under `COc1cc2ncc(-c3ccc(OC4CCN(C(=O)[C@H]5CCCO5)CC4)cc3)cc2cc1Cl` [Example 449, {4-[4-(6-Chloro-7-methoxyquinolin-3-yl)-phenoxy]-piperidin-1-yl}-(R)-tetrahydrofuran-2-yl-methanone] stands 1000 to 10000 nM.
Under `COc1ccc2ncc(-c3ccc(OC4CCN(C(=O)[C@H]5CCCO5)CC4)cc3)cc2c1` [Example 450, {4-[4-(6-Methoxyquinolin-3-yl)-phenoxy]-piperidin-1-yl}-(R)-tetrahydro-furan-2-yl-methanone, HCl] stands 1 to 99 nM.
For `CC(C)Oc1cc2cc(-c3ccc(OC4CCN(C(=O)[C@H]5CCCO5)CC4)cc3)ccc2cn1` [Example 451, {4-[4-(3-Isopropoxyisoquinolin-6-yl)-phenoxy]-piperidin-1-yl}-(R)-tetrahydrofuran-2-yl-methanone], the IC50 was in the range of 1 to 99 nM.
Take `O=C([C@H]1CCCO1)N1CCC(Oc2ccc(-c3ccc4c(N5CCOCC5)nccc4c3)cc2)CC1` [Example 452, {4-[4-(1-Morpholin-4-yl-isoquinolin-6-yl)-phenoxy]-piperidin-1-yl}-(R)-tetrahydrofuran-2-yl-methanone]: the IC50 lay within 1 to 99 nM.
The same measure for `CN(C)c1nccc2cc(-c3ccc(OC4CCN(C(=O)[C@H]5CCCO5)CC4)cc3)ccc12` [Example 453, {4-[4-(1-Dimethylaminoisoquinolin-6-yl)-phenoxy]-piperidin-1-yl}-(R)-tetrahyrofuran-2-yl methananone, HCl]: 100 to 999 nM; for `Nc1nccc2cc(-c3ccc(OC4CCN(C(=O)[C@H]5CCCO5)CC4)cc3)ccc12` [Example 454, {4-[4-(1-Aminoisoquinolin-6-yl)-phenoxy]-piperidin-1-yl}-(R)-tetrahydro-furan-2-yl-methanone]: 1 to 99 nM.
Under `CN1CCN(c2nccc3cc(-c4ccc(OC5CCN(C(=O)[C@H]6CCCO6)CC5)cc4)ccc23)CC1` [Example 455] stands 1000 to 10000 nM; under `CNc1nccc2cc(-c3ccc(OC4CCN(C(=O)[C@H]5CCCO5)CC4)cc3)ccc12` [Example 456, {4-[4-(1-Methylaminoisoquinolin-6-yl)-phenoxy]-piperidin-1-yl}-(R)-tetrahydrofuran-2-yl-methanone], 1 to 99 nM.
Under `Cc1cncc2cc(-c3ccc(OC4CCN(C(=O)[C@H]5CCCO5)CC4)cc3)ccc12` [Example 459, {4-[4-(4-Methylisoquinolin-6-yl)-phenoxy]-piperidin-1-yl}-(R)-tetrahydrofuran-2-yl-methanone, HCl] stands 1 to 99 nM; under `CCC(=O)N1CCC(Oc2ccc(-c3cnc4cccc(C)c4c3)cc2)CC1` [Example 460, 1-{4-[4-(5-Methylquinolin-3-yl)-phenoxy]-piperidin-1-yl}-propan-1-one, HCl], 100 to 999 nM.
As to `Cc1cccc2ncc(-c3ccc(OC4CCN(C(=O)C5CC5)CC4)cc3)cc12` [Example 461, Cyclopropyl-{4-[4-(5-methyl-quinolin-3-yl)-phenoxy]-piperidin-1-yl}-methanone, HCl], the IC50 lay within 100 to 999 nM.
The same measure for `Cc1cccc2ncc(-c3ccc(OC4CCN(C(=O)[C@H]5CCCO5)CC4)cc3)cc12` [Example 462, {4-[4-(5-Methylquinolin-3-yl)-phenoxy]-piperidin-1-yl}-(R)-tetrahydro-furan-2-yl-methanone, HCl]: 1 to 99 nM.
As for `CCC(=O)N1CCC(Oc2ccc(-c3cnc4cccc(OC)c4c3)cc2)CC1` [Example 463, 1-{4-[4-(5-Methoxyquinolin-3-yl)-phenoxy]-piperidin-1-yl}-propan-1-one, HCl], the IC50 is 1000 to 10000 nM.
The same measure for `COc1cccc2ncc(-c3ccc(OC4CCN(C(=O)C5CC5)CC4)cc3)cc12` [Example 464, Cyclopropyl-{4-[4-(5-methoxyquinolin-3-yl)-phenoxy]-piperidin-1-yl}-methanone]: 1000 to 10000 nM; for `COc1cccc2ncc(-c3ccc(OC4CCN(C(=O)[C@H]5CCCO5)CC4)cc3)cc12` [Example 465, {4-[4-(5-Methoxyquinolin-3-yl)-phenoxy]-piperidin-1-yl}-(R)-tetrahydro-furan-2-yl-methanone, HCl]: 100 to 999 nM; for `O=C(C1CC1)N1CCC(Oc2ccc(-c3ccc4cnccc4c3)cc2)CC1` [Example 466, Cyclopropyl-[4-(4-isoquinolin-6-yl-phenoxy)-piperidin-1-yl]-methanone]: 1 to 99 nM.
For the compound `O=C([C@H]1CCCO1)N1CCC(Oc2ccc(-c3ccc4cnccc4c3)cc2)CC1` [Example 467, [4-[4-(6-Isoquinolyl)phenoxy]-1-piperidyl]-[(2R)-tetrahydrofuran-2-yl]-methanone HCl], the IC50 lay in the range of 1 to 99 nM.
Under `Cc1c(-c2ccc(OC3CCN(C(=O)[C@H]4CCCO4)CC3)cc2)ccc2cnccc12` [Example 468, {4-[4-(5-Methylisoquinolin-6-yl)-phenoxy]-piperidin-1-yl}-(R)-tetrahydro-furan-2-yl-methanone, HCl] stands 1 to 99 nM; under `CCC(=O)N1CCC(Oc2ccc(-c3ccc4c(C)ncc(C)c4c3)cc2)CC1` [Example 469, 1-[4-[4-(1,4-Dimethyl-6-isoquinolyl)phenoxy]-1-piperidyl]propan-1-one, HCl], 100 to 999 nM; under `Cc1cnc(C)c2ccc(-c3ccc(OC4CCN(C(=O)C5CC5)CC4)cc3)cc12` [Example 470, Cyclopropyl-[4-[4-(1,4-dimethyl-6-isoquinolyl)phenoxy]-1-piperidyl]methanone, HCl], 100 to 999 nM.
The same measure for `Cc1cnc(C)c2ccc(-c3ccc(OC4CCN(C(=O)[C@H]5CCCO5)CC4)cc3)cc12` [Example 471, [4-[4-(1,4-Dimethyl-6-isoquinolyl)phenoxy]-1-piperidyl]-[(2R)-tetrahydrofuran-2-yl]methanone, HCl]: 1 to 99 nM; for `CCC(=O)N1CCC(Oc2ccc(-c3ccc4c(C)nccc4c3C)cc2)CC1` [Example 472, 1-[4-[4-(1,5-Dimethyl-6-isoquinolyl)phenoxy]-1-piperidyl]propan-1-one HCl]: 100 to 999 nM; for `Cc1nccc2c(C)c(-c3ccc(OC4CCN(C(=O)C5CC5)CC4)cc3)ccc12` [Example 473, Cyclopropyl-[4-[4-(1,5-dimethyl-6-isoquinolyl)phenoxy]-1-piperidyl]methanone HCl]: 100 to 999 nM.
The same measure for `Cc1nccc2c(C)c(-c3ccc(OC4CCN(C(=O)[C@H]5CCCO5)CC4)cc3)ccc12` [Example 474, [4-[4-(1,5-Dimethyl-6-isoquinolyl)phenoxy]-1-piperidyl]-[(2R)-tetrahydrofuran-2-yl]methanone, HCl]: 1 to 99 nM.
Turning to `O=C([C@H]1CCCO1)N1CCC(Oc2ccc(-c3ccc4cccnc4c3C3CC3)cc2)CC1` [Example 475, [4-[4-(8-Cyclopropyl-7-quinolyl)phenoxy]-1-piperidyl]-[(2R)-tetrahydrofuran-2-yl]methanone, HCl], the IC50 lay in the range of 1 to 99 nM.
